Laboratory results from ChEMBL document CHEMBL1148223, “Isolation and phytotoxicity of apocarotenoids from Chenopodium album” (2004).
Calls of active or inactive are those of the source. The calls are words filed in the database; no cut-off is given here.

Legend:
Format in all cases: functional
Lactuca sativa [1] = experiment: Reduction of Lactuca sativa seeds germination at 100 uM daily for 5 days relative to control; parameters: Activity: scale not given: the % may be the effect or the level left; conditions: for inhibition at 100 µM: Lactuca sativa, 120 h
Lactuca sativa [2] = experiment: Reduction of Lactuca sativa length development; parameters: scale not given: the % may be the effect or the level left
Lactuca sativa [3] = experiment: Reduction of Lactuca sativa root length at 0.1 uM relative to control; parameters: scale not given: the % may be the effect or the level left
Lactuca sativa [4] = experiment: Reduction of Lactuca sativa shoot length at 0.1 uM relative to control; parameters: scale not given: the % may be the effect or the level left

## CC(=O)/C=C/[C@H]1C(C)=C[C@H](O)CC1(C)C
Lactuca sativa [1]
  inhibition at 100 µM: 30%

## CC(=O)/C=C/C=C(C)/C=C/[C@H]1C(C)=C[C@H](O)CC1(C)C
Lactuca sativa [1]
  Activity: 20%

## CC1=CC(=O)CC(C)(C)[C@@]1(O)/C=C/C(C)=C/CO
Lactuca sativa [1]
  Activity: Active

## CC(=O)/C=C/[C@H]1C(C)=CC(=O)CC1(C)C
Lactuca sativa [1]
  inhibition at 100 µM: 30%

## CC1=CC(=O)CC(C)(C)[C@@]1(O)/C=C/[C@@H](C)O [BLUMENOL A]
Lactuca sativa [2]
  Activity: 30%

## CC(=O)/C=C/[C@@]1(O)C(C)=CC(=O)CC1(C)C
Lactuca sativa [2]
  Activity: 30%

## CC(=O)/C=C/C=C(C)/C=C/[C@@]1(O)C(C)=CC(=O)CC1(C)C
Lactuca sativa [1]
  Activity: 20%

## CC(=O)C=C=C1C(C)(C)C[C@H](O)C[C@@]1(C)O
Lactuca sativa [3]
  Activity: 20%
Lactuca sativa [4]
  Activity: 30%
